In brackets after ≈: the same amount, converted by molar mass. Read-outs that look alike come from different tables or passages of the source.
Columns and labels:
[1] = tested on: S. enterica serotype typhimurium isolate; assay: Antibiotic susceptibility testing (microdilution MIC, VITEK, NCCLS disk diffusion); type: cell-based, Salmonella enterica serotype Typhimurium
[2] = molecular target: T1, beta-lactamase band of isoelectric point 9.1 (AmpC enzyme) of K. pneumoniae 249 (Klebsiella pneumoniae, UniProt Q48434); assay: Isoelectric focusing, cefotaxime hydrolysis and inhibitor determinations in polyacrylamide gels, sonic extracts; type: biochemical; conditions: sonic extracts of K. pneumoniae 249, polyacrylamide gel; for inhibition of the band of isoelectric point 9.1: inhibitor 1000 mM
T1 construct: performed using sonic extracts of K. pneumoniae 249; endogenous in cells; host or cells: Klebsiella pneumoniae strain 249 (clinical urine isolate), sonic extract
T1 sequence (Q48434 21-381): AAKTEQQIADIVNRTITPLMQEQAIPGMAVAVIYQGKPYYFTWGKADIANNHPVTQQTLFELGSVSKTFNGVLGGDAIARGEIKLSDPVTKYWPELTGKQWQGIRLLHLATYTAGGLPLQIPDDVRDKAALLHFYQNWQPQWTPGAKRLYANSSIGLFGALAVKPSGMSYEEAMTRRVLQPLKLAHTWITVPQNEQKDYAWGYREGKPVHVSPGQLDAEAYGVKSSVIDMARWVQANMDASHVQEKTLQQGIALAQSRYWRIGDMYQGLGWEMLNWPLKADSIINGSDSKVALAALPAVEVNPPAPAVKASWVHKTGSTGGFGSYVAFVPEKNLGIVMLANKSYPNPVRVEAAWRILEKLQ
Method: The test was performed using an innoculum of approximately 5×10^5 colony forming units per square milliliter (cfu/mL^2).
The cefoxitin, ceftriaxone/clavulanate and ceftazidime/clavulanate MICs indicated two possible mechanisms of resistance, the expression of a plasmid-mediated ampC gene and/or a porin mutation. […] Three beta-lactamases were identified with isoelectric points of 5.4, 7.6, and 9.1. The band that focused at isoelectric point 9.1 hydrolyzed cefotaxime and was inhibited by cloxacillin (1000 mM), but not clavulanate (1000 mM). These findings indicated it was an AmpC enzyme.

K. pneumoniae strain 249 = assay: Overnight microdilution susceptibility test (MicroScan panels, NCCLS criteria); type: cell-based; conditions: Klebsiella pneumoniae, K. pneumoniae 249, combinations as drug/clavulanate, read-out: Minimum Inhibitory Concentrations (MICs)
Method: Susceptibility tests were performed on K. pneumoniae 249 by an overnight microdilution method with investigational dehydrated panels provided by Dade Behring MicroScan (Sacramento, Calif.) according to the manufacturer's recommendations and interpreted according to National Committee for Clinical Laboratory Standards (NCCLS) criteria and by NCCLS disc diffusion (National Committee for Clinical Laboratory Standards (NCCLS), “Methods for Dilution Antimicrobial Susceptibility Tests for Bacteria that Grow Aerobically: Approved Standard M7-A4,” Villanova, Pa. (1997); and Hanson et al., J. Antimicrob. Chemother., 44(3):377-380 (September 1999)). The test was performed using an innoculum of approximately 5×10^5 colony forming units per square milliliter (cfu/mL^2). Isoelectric focusing (IEF), cefotaxime hydrolysis and inhibitor determinations in polyacrylamide gels were performed using sonic extracts of K. pneumoniae 249 (Thomson et al., Antimicrob. Agents Chemother., 35:1001-1003 (1991)).

[3] = tested on: S. enterica serotype typhimurium isolate; assay: Phenotypic inhibitor-based ESBL tests (double disk potentiation with clavulanate); type: cell-based, Salmonella enterica serotype Typhimurium; conditions: for potentiation by clavulanate (ESBL tests positive): with clavulanate
Text: Susceptibility testing and β-lactamase investigations. Antibiotic susceptibilities and resistance phenotypes were investigated by microdilution MIC methodology, double disk potentiation, VITEK (card GNS-424, bioMérieux, Inc. St. Louis, Mo.), NCCLS disk diffusion, and the three dimensional test (Thomson et al., Antimicrob. Agents Chemother., 35(5):1001-1003 (May 1991); and Thomson et al., Antimicrob. Agents Chemother., 36(9):1877-1882 (September 1992)).

[4] = molecular target: T2, beta-lactamase pI 7.4 (OXA-1 or OXA-30) (Escherichia coli, UniProt P13661); type: biochemical, Salmonella enterica serotype Typhimurium; conditions: isoelectric focusing, crude preparation
T2 construct: Crude beta-lactamase preparations derived from sonicated bacterial cultures of the S. typhimurium isolate; endogenous in cells; host or cells: Salmonella enterica serotype Typhimurium clinical stool isolate, sonicated culture
T2 sequence (P13661 26-276): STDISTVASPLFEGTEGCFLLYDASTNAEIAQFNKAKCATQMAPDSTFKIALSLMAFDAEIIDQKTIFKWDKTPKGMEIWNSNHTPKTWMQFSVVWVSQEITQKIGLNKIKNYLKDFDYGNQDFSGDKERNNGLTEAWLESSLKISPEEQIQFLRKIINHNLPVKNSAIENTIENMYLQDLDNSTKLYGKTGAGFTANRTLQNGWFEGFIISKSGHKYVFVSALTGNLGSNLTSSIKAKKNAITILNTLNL

[5] = tested on: beta-lactamase pI>9.0 (AmpC); assay: Isoelectric focusing with general inhibitor characteristics, crude beta-lactamase preparations; type: biochemical, Salmonella enterica serotype Typhimurium; conditions: crude preparation
Method: (§1) Crude beta-lactamase preparations derived from sonicated bacterial cultures of the S. typhimurium isolate and strains producing reference beta-lactamases were assessed for beta-lactamase pls and general inhibitor characteristics by isoelectric focusing (Thomson et al., Antimicrob. Agents Chemother., 35(5):1001-1003 (May 1991).

[6] = tested on: beta-lactamase pI 8.2 (SHV-9); assay: as above; type: biochemical, Salmonella enterica serotype Typhimurium; conditions: crude preparation
Method: as §1

Compound	susceptibility category (susceptible / intermediate / resistant) [1]	MIC ([1]; Table 2)	MIC (K. pneumoniae strain 249) [µg/mL]	further results
CO/N=C(\C(=O)N[C@@H]1C(=O)N2C(C(=O)O)=C(COC(C)=O)CS[C@H]12)c1csc(N)n1 [cefotaxime]	resistance			cefotaxime hydrolysis by the band of isoelectric point 9.1 [2]: hydrolyzed
C[C@H]1COc2c(N3CCN(C)CC3)c(F)cc3c(=O)c(C(=O)O)cn1c23 [Levofloxacin]		0.5 µg/mL (≈ 1.38 µM)		
Gentamicin		> 16 µg/mL		
CO/N=C(\C(=O)N[C@@H]1C(=O)N2C(C(=O)O)=C(CSc3nc(=O)c(=O)[nH]n3C)CS[C@H]12)c1csc(N)n1 [Ceftriaxone]		> 128 µg/mL	16	
CC(C)(O/N=C(\C(=O)N[C@@H]1C(=O)N2C(C(=O)[O-])=C(C[n+]3ccccc3)CS[C@H]12)c1csc(N)n1)C(=O)O [Ceftazidime]	resistance	> 32 µg/mL	16	
CCN1CCN(C(=O)N[C@@H](C(=O)N[C@@H]2C(=O)N3[C@@H]2SC(C)(C)[C@@H]3C(=O)O)c2ccccc2)C(=O)C1=O [piperacillin]			> 64	
CC1(C)S[C@@H]2[C@H](NC(=O)[C@H](N)c3ccccc3)C(=O)N2[C@H]1C(=O)O [Ampicillin]		> 256 µg/mL	> 16	
C[C@@H](O)[C@H]1C(=O)N2C(C(=O)O)=C([C@H]3CCCO3)S[C@H]12 [Faropenem]		2 µg/mL (≈ 7.01 µM)		MIC ([1]; Salmonella enterica, read-out: MIC): 2 µg/mL (≈ 7.01 µM)
NCC[C@H](O)C(=O)N[C@@H]1C[C@H](N)[C@@H](O[C@H]2O[C@H](CN)[C@@H](O)[C@H](O)[C@H]2O)[C@H](O)[C@H]1O[C@H]1O[C@H](CO)[C@@H](O)[C@H](N)[C@H]1O [Amikacin]		> 64 µg/mL		
C[C@H]1[C@H](NC(=O)/C(=N\OC(C)(C)C(=O)O)c2csc(N)n2)C(=O)N1S(=O)(=O)O [aztreonam]	resistance			reversal of resistance by the addition of clavulanate ([3]; addition of clavulanate): partially reversible; potentiation by clavulanate (ESBL tests positive) [3]: potentiation
O=C(O)c1cn(C2CC2)c2cc(N3CCNCC3)c(F)cc2c1=O [Ciprofloxacin]	susceptible			
CO/N=C(\C(=O)N[C@@H]1C(=O)N2C(C(=O)O)=C(COC(N)=O)CS[C@H]12)c1ccco1 [Cefuroxime]		> 256 µg/mL		
COCC1=C(C(=O)O)N2C(=O)[C@@H](NC(=O)/C(=N\OC)c3csc(N)n3)[C@H]2SC1 [cefpodoxime]			> 4	
NC[C@H]1O[C@H](O[C@H]2[C@H](O)[C@@H](O[C@H]3O[C@H](CO)[C@@H](O)[C@H](N)[C@H]3O)[C@H](N)C[C@@H]2N)[C@H](N)C[C@@H]1O [Tobramycin]		> 16 µg/mL		
CC1(C)S[C@@H]2[C@H](NC(=O)[C@H](C(=O)O)c3ccsc3)C(=O)N2[C@H]1C(=O)O [ticarcillin]			> 64	
CO/N=C(\C(=O)N[C@@H]1C(=O)N2C(C(=O)[O-])=C(C[N+]3(C)CCCC3)CS[C@H]12)c1csc(N)n1 [cefepime]	intermediate		≤ 4	potentiation by clavulanate (ESBL tests positive) [3]: potentiation
C=CC1=C(C(=O)O)N2C(=O)[C@@H](NC(=O)/C(=N\OCC(=O)O)c3csc(N)n3)[C@H]2SC1 [Cefixime]		> 128 µg/mL		
CO[C@@]1(NC(=O)Cc2cccs2)C(=O)N2C(C(=O)O)=C(COC(N)=O)CS[C@@H]21 [cefoxitin]	resistance		> 32	
CC=CC1=C(C(=O)O)N2C(=O)[C@@H](NC(=O)[C@H](N)c3ccc(O)cc3)[C@H]2SC1 [Cefprozil]		> 128 µg/mL		
C[C@@H](O)[C@H]1C(=O)N2C(C(=O)O)=C(S[C@@H]3CN[C@H](C(=O)N(C)C)C3)[C@H](C)[C@H]12 [Meropenem]	susceptible	less than 2	≤ 0.5	
O=C(O)[C@H]1/C(=C/CO)O[C@@H]2CC(=O)N21 [clavulanate]				inhibition of beta-lactamase pI 7.4 [4]: inhibited; inhibition of beta-lactamase pI>9.0 [5]: not; inhibition of beta-lactamase pI 8.2 [6]: inhibited; inhibition of the band of isoelectric point 9.1 [2]: not
C[C@@H](O)[C@H]1C(=O)N2C(C(=O)O)=C(SCCN=CN)C[C@H]12 [Imipenem]		0.25 µg/mL (≈ 0.835 µM)		
Cotrimoxazole	resistant	> 320 µg/mL		
Cc1onc(-c2ccccc2Cl)c1C(=O)N[C@@H]1C(=O)N2[C@@H]1SC(C)(C)[C@@H]2C(=O)O [cloxacillin]				inhibition of beta-lactamase pI 7.4 [4]: not; inhibition of beta-lactamase pI>9.0 [5]: inhibited; inhibition of the band of isoelectric point 9.1 [2]: inhibited
CO/N=C(\C(=O)N[C@@H]1C(=O)N2C(C(=O)[O-])=C(C[n+]3cccc4c3CCC4)CS[C@H]12)c1csc(N)n1 [cefpirome]				potentiation by clavulanate (ESBL tests positive) [3]: potentiation
CC(=O)OCC1=C(C(=O)O)N2C(=O)[C@@H](NC(=O)Cc3cccs3)[C@H]2SC1 [Cephalothin]		> 32 µg/mL	> 16	
O=C(N[C@H](CO)[C@H](O)c1ccc([N+](=O)[O-])cc1)C(Cl)Cl [Chloramphenicol]	resistant	> 256 µg/mL		

— US20040002080A1, “Primers for use in detecting beta-lactamases” (priority 2001, published 2004)
